“And” between values parts separate entries of the source, which are not always exact repeats. Equal values may be shown once. Inconclusive results and toxic doses are left out. Cut-off read from the data, not from the text of the source: active = T/C of 150% or more; inactive = T/C below 125%.
Test system: L1210 leukemia ip in BDF1 mice, survival T/C
Assay: NCI In Vivo Anticancer Drug Screen. Data for tumor model L1210 Leukemia (intraperitoneal) in B6D2F1 (BDF1) mice
Conditions: endpoint: mean survival time, higher = longer survival
Protocol: The antitumor activity of compounds was measured in mice bearing transplantable tumors. Survival or tumor size were measured and the results are expressed as the measurement made in the treated group (T) divided by the measurement made in the vehicle treated control group (C). The tumor model used in this assay is L1210 Leukemia (intraperitoneal) in B6D2F1 (BDF1) mice

[1] = dose: 100.0 mg/kg/injection, schedule: Q01DX001 (ip), vehicle: saline with Tween-80
[2] = dose: 100.0 mg/kg/injection, schedule: Q01DX009 (ip), vehicle: saline with Tween-80
[3] = dose: 100.0 mg/kg/injection, schedule: Q04DX002 (ip), vehicle: saline with Tween-80
[4] = dose: 100.0 mg/kg/injection, schedule: Q04DX003 (ip), vehicle: saline with Tween-80
[5] = dose: 200.0 mg/kg/injection, schedule: Q01DX001 (ip), vehicle: saline with Tween-80
[6] = dose: 200.0 mg/kg/injection, schedule: Q01DX009 (ip), vehicle: saline with Tween-80
[7] = dose: 200.0 mg/kg/injection, schedule: Q04DX002 (ip), vehicle: saline with Tween-80
[8] = dose: 200.0 mg/kg/injection, schedule: Q04DX003 (ip), vehicle: saline with Tween-80
[9] = dose: 400.0 mg/kg/injection, schedule: Q01DX001 (ip), vehicle: saline with Tween-80
[10] = dose: 400.0 mg/kg/injection, schedule: Q01DX009 (ip), vehicle: saline with Tween-80
[11] = dose: 400.0 mg/kg/injection, schedule: Q04DX002 (ip), vehicle: saline with Tween-80
[12] = dose: 400.0 mg/kg/injection, schedule: Q04DX003 (ip), vehicle: saline with Tween-80
[13] = dose: 100.0 mg/kg/injection, schedule: Q04DX003 (ip), vehicle: carboxymethylcellulose (CMC)
[14] = dose: 200.0 mg/kg/injection, schedule: Q04DX003 (ip), vehicle: carboxymethylcellulose (CMC)
[15] = dose: 400.0 mg/kg/injection, schedule: Q04DX003 (ip), vehicle: carboxymethylcellulose (CMC)
[16] = dose: 25.0 mg/kg/injection, schedule: Q04DX002 (ip), vehicle: saline
[17] = dose: 50.0 mg/kg/injection, schedule: Q04DX002 (ip), vehicle: saline
[18] = dose: 100.0 mg/kg/injection, schedule: Q04DX002 (ip), vehicle: saline
[19] = dose: 200.0 mg/kg/injection, schedule: Q04DX002 (ip), vehicle: saline
[20] = dose: 400.0 mg/kg/injection, schedule: Q04DX002 (ip), vehicle: saline
[21] = dose: 100.0 mg/kg/injection, schedule: Q01DX001 (ip), vehicle: saline
[22] = dose: 200.0 mg/kg/injection, schedule: Q01DX001 (ip), vehicle: saline
[23] = dose: 400.0 mg/kg/injection, schedule: Q01DX001 (ip), vehicle: saline
[24] = dose: 100.0 mg/kg/injection, schedule: Q04DX002 (ip), vehicle: Klucel (hydroxypropylcellulose) (HPC)
[25] = dose: 200.0 mg/kg/injection, schedule: Q04DX002 (ip), vehicle: Klucel (hydroxypropylcellulose) (HPC)
[26] = dose: 400.0 mg/kg/injection, schedule: Q04DX002 (ip), vehicle: Klucel (hydroxypropylcellulose) (HPC)
[27] = dose: 100.0 mg/kg/injection, schedule: Q01DX009 (ip), vehicle: Klucel (hydroxypropylcellulose) (HPC)
[28] = dose: 200.0 mg/kg/injection, schedule: Q01DX009 (ip), vehicle: Klucel (hydroxypropylcellulose) (HPC)
[29] = dose: 400.0 mg/kg/injection, schedule: Q01DX009 (ip), vehicle: Klucel (hydroxypropylcellulose) (HPC)

Measured: T/C

O=C(/C=C/c1cccc2ccccc12)c1ccccc1[N+](=O)[O-]
inactive: [1] 96 % of control | [2] 96 % of control and 87 % of control | [3] 88 % of control | [4] 96 % of control | [5] 96 % of control | [6] 89 % of control and 90 % of control | [7] 90 % of control | [8] 90 % of control | [9] 91 % of control | [10] 86 % of control and 90 % of control | [11] 88 % of control and 90 % of control | [12] 91 % of control

C1CCCC2(CC1)CCCCC2
inactive: dose: 75.0 mg/kg/injection, schedule: Q01DX001 (ip), vehicle: saline with Tween-80 94 % of control | dose: 150.0 mg/kg/injection, schedule: Q01DX001 (ip), vehicle: saline with Tween-80 90 % of control | dose: 300.0 mg/kg/injection, schedule: Q01DX001 (ip), vehicle: saline with Tween-80 95 % of control

Nc1ccc(C(=O)CC(=O)c2cccc([N+](=O)[O-])c2)cc1
inactive: [13] 97 % of control | [14] 93 % of control | [15] 90 % of control

C=CCc1ccc(OC(=O)Nc2ccc(SC)cc2)c(OC)c1
inactive: dose: 50.0 mg/kg/injection, schedule: Q01DX009 (ip), vehicle: saline with Tween-80 95 % of control and 87 % of control | [1] 101 % of control | [3] 90 % of control and 91 % of control | [4] 94 % of control | [5] 98 % of control | [7] 93 % of control and 100 % of control | [8] 91 % of control | [9] 97 % of control | [10] 99 % of control and 89 % of control | [11] 94 % of control and 88 % of control | [12] 96 % of control

C=COP(OCCCC)OCCCC
inactive: [16] 94 % of control | [17] 91 % of control | [18] 93 % of control and 97 % of control | [19] 91 % of control | [20] 96 % of control

CCCCC(C)(CCN)CCCC
inactive: dose: 4.0 mg/kg/injection, schedule: Q01DX015 (ip), vehicle: carboxymethylcellulose (CMC) 88 % of control | dose: 8.0 mg/kg/injection, schedule: Q01DX015 (ip), vehicle: carboxymethylcellulose (CMC) 96 % of control | dose: 16.0 mg/kg/injection, schedule: Q01DX015 (ip), vehicle: carboxymethylcellulose (CMC) 107 % of control | dose: 32.0 mg/kg/injection, schedule: Q01DX015 (ip), vehicle: carboxymethylcellulose (CMC) 90 % of control | dose: 48.0 mg/kg/injection, schedule: Q01DX015 (ip), vehicle: carboxymethylcellulose (CMC) 100 % of control | dose: 50.0 mg/kg/injection, schedule: Q01DX001 (ip), vehicle: carboxymethylcellulose (CMC) 111 % of control | dose: 64.0 mg/kg/injection, schedule: Q01DX015 (ip), vehicle: carboxymethylcellulose (CMC) 93 % of control | dose: 100.0 mg/kg/injection, schedule: Q01DX001 (ip), vehicle: carboxymethylcellulose (CMC) 96 % of control | dose: 100.0 mg/kg/injection, schedule: Q01DX015 (ip), vehicle: carboxymethylcellulose (CMC) 98 % of control | dose: 150.0 mg/kg/injection, schedule: Q01DX015 (ip), vehicle: carboxymethylcellulose (CMC) 100 % of control | dose: 200.0 mg/kg/injection, schedule: Q01DX001 (ip), vehicle: carboxymethylcellulose (CMC) 102 % of control | dose: 400.0 mg/kg/injection, schedule: Q01DX001 (ip), vehicle: carboxymethylcellulose (CMC) 113 % of control

CC1(Br)OC(=O)C(C)(Br)OC1=O (stereo not given)
inactive: dose: 100.0 mg/kg/injection, schedule: Q04DX003 (ip), vehicle: saline 96 % of control | dose: 200.0 mg/kg/injection, schedule: Q04DX003 (ip), vehicle: saline 96 % of control

Cc1cc(NS(=O)(=O)c2ccc(N=Nc3c(N)nc(N)[nH]c3=O)cc2)nc(C)n1
inactive: [21] 97 % of control | [22] 89 % of control | [23] 92 % of control

CC(=O)NC(CC(C)C)C(=O)O (stereo not given)
inactive: [16] 96 % of control | [17] 101 % of control | [18] 101 % of control | [19] 90 % of control | [20] 108 % of control

COC(=O)C1C2CCC(C2)C1C(=O)OC (stereo not given)
inactive: [24] 111 % of control | [25] 93 % of control | [26] 107 % of control

COc1cccc(OC)c1OC(=O)NS(=O)(=O)c1ccc(Cl)cc1
inactive: [2] 116 % of control | [4] 104 % of control | [6] 98 % of control | [8] 97 % of control | [10] 106 % of control | [12] 103 % of control

CCC(C(=O)OC)C(=O)c1ccccc1 (stereo not given)
inactive: dose: 50.0 mg/kg/injection, schedule: Q01DX001 (ip), vehicle: saline 107 % of control | [21] 102 % of control | [22] 107 % of control | [23] 96 % of control

CCOC(=O)CCCN(C(=O)c1ccccc1)c1scc(-c2ccccc2)c1C(=O)OCC
inactive: dose: 50.0 mg/kg/injection, schedule: Q04DX003 (ip), vehicle: saline with Tween-80 92 % of control | [4] 95 % of control | [8] 94 % of control | [12] 103 % of control

O=C(Nc1cccc(C(F)(F)F)c1)Nc1nccs1
inactive: [27] 100 % of control | [24] 94 % of control | [28] 115 % of control | [25] 108 % of control | [29] 92 % of control | [26] 89 % of control

Cc1c(C(=O)O)no[n+]1[O-]
inactive: [18] 104 % of control | [19] 95 % of control | [20] 87 % of control

[I][Pb]([c]1ccccc1)([c]1ccccc1)[c]1ccccc1
inactive: dose: 12.5 mg/kg/injection, schedule: Q04DX003 (ip), vehicle: Klucel (hydroxypropylcellulose) (HPC) 98 % of control | dose: 25.0 mg/kg/injection, schedule: Q04DX003 (ip), vehicle: Klucel (hydroxypropylcellulose) (HPC) 94 % of control

CCc1cccc(CC)c1N=Cc1ccccc1O
inactive: dose: 100.0 mg/kg/injection, schedule: Q01DX009 (ip), vehicle: carboxymethylcellulose (CMC) 98 % of control and 102 % of control | dose: 100.0 mg/kg/injection, schedule: Q04DX002 (ip), vehicle: carboxymethylcellulose (CMC) 93 % of control and 101 % of control | [13] 98 % of control | dose: 200.0 mg/kg/injection, schedule: Q01DX009 (ip), vehicle: carboxymethylcellulose (CMC) 93 % of control and 98 % of control | dose: 200.0 mg/kg/injection, schedule: Q04DX002 (ip), vehicle: carboxymethylcellulose (CMC) 96 % of control and 102 % of control | [14] 102 % of control | dose: 400.0 mg/kg/injection, schedule: Q01DX009 (ip), vehicle: carboxymethylcellulose (CMC) 95 % of control | dose: 400.0 mg/kg/injection, schedule: Q04DX002 (ip), vehicle: carboxymethylcellulose (CMC) 93 % of control and 96 % of control | [15] 104 % of control

Cc1ccc(C)c(NC(=O)Nc2cccc(O)c2)c1
inactive: [27] 102 % of control | [24] 109 % of control | [28] 103 % of control | [25] 102 % of control | [29] 94 % of control | [26] 109 % of control

CC(=O)Cc1nc(N)nc(Nc2ccc(Cl)c(Cl)c2)n1
inactive: [4] 91 % of control | [8] 96 % of control | [12] 96 % of control

N=C(N)c1ccc(OCCCCOc2ccc(NC(=O)Nc3cccc(S(=O)(=O)F)c3)cc2)cc1
inactive: dose: 25.0 mg/kg/injection, schedule: Q01DX001 (ip), vehicle: Klucel (hydroxypropylcellulose) (HPC) 97 % of control | dose: 50.0 mg/kg/injection, schedule: Q01DX001 (ip), vehicle: Klucel (hydroxypropylcellulose) (HPC) 95 % of control | dose: 100.0 mg/kg/injection, schedule: Q01DX001 (ip), vehicle: Klucel (hydroxypropylcellulose) (HPC) 89 % of control
